We go through one molecule from ChEMBL document CHEMBL3886212, “Disubstituted 3,4-diamino-3-cyclobutene-1,2-dione compounds for use in the treatment of chemokine-mediated diseases” (2015).

Assay [1] has as its target T1, C-X-C chemokine receptor type 2 (Homo sapiens, UniProt P25025).
T1 sequence (P25025 whole entry): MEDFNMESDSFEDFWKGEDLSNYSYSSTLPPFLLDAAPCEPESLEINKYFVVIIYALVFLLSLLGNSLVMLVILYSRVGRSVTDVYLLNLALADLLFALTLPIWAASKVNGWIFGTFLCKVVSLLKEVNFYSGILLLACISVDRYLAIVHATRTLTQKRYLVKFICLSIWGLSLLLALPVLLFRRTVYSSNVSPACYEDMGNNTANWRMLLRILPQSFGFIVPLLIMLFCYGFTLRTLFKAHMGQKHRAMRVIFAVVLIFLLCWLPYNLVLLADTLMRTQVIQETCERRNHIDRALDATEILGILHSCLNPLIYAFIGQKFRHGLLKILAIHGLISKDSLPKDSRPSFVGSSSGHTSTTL
The assay can be described thus: (§1) Assay Drug Dev Technol. 2007 February; 5(1); 137-44). The class given is cell-based.

Assay [2] concerns the target T2, C-X-C chemokine receptor type 1 (Homo sapiens, UniProt P25024).
T2 sequence (P25024 whole entry): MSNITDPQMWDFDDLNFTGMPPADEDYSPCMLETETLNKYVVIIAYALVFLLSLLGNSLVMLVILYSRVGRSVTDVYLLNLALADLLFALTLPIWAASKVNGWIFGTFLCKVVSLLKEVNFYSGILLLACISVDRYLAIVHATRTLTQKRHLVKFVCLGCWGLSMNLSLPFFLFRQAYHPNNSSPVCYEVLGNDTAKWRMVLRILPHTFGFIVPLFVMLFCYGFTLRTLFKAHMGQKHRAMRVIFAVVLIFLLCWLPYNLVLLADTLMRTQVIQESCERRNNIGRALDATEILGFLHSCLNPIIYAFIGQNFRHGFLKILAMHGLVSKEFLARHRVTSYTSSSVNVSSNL
Described as §1. The class given is cell-based.

Molecules are shown by their SMILES.

By IC50 is commonly meant the concentration that gives 50% inhibition. Low readings indicate higher potency, high ones lower potency. For the molecule `Cc1ccc(C(Nc2c(Nc3cccc(C(=O)N(C)C)c3O)c(=O)c2=O)C2(C)CCOCC2)o1` (configuration not stated), the figures for the IC50 in assay [1] and in assay [2] were 0.157 µM and 3.35 µM, respectively.
